Earlier results, collected in article PMC11324666, “Two novel in vitro assays to screen chemicals for their capacity to inhibit thyroid hormone transmembrane transporter proteins OATP1C1 and OAT4” (Archives of Toxicology, 2024).

How the values were obtained:
[1] = tested on: oatp1c1; design: method as in Westholm et al. (2009); conditions: T4 1 nM; ref Westholm et al. (2009); read-out: IC50 of T4 transmembrane transport inhibition; cited from earlier work
[2] = tested on: oatp1c1; design: method as in Tohyama et al. (2004); conditions: ref Tohyama et al. (2004); cited from earlier work

SMILES | IC50 [1] [µM] | Ki [2] [µM]
CC1(C)C(/C=C/C=C/C=C/C=C2\N(CCCCS(=O)(=O)O)c3ccc4ccccc4c3C2(C)C)=[N+](CCCCS(=O)(=O)[O-])c2ccc3ccccc3c21 [Indocyanine green, reference compound] | 0.1 | 
CCCN(CCC)S(=O)(=O)c1ccc(C(=O)O)cc1 [Probenecid, reference compound] |  | 293
